Measured values reported in US9539260B2, “Dihydro-benzo-oxazine and dihydro-pyrido-oxazine derivatives” (Novartis AG, priority 2012, dated 2017).

Legend:
[1] = target: PI3K alpha (Homo sapiens (Human), UniProt P42336); assay: Enzymatic PI3K alpha isoform inhibition (lipid kinase activity, Kinase-Glo luminescence); format: biochemical; settings: Enzymatic assay
In short: (§1)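 ATP-depletion format: 10 nM PI3K with 5 μg/mL phosphatidylinositol and 2 μM ATP, run to ~50% ATP consumption, then Kinase-Glo added and remaining ATP read by luminescence after 5 min. IC50 from 4-parameter logistic fit, typically over 8 concentrations 10–0.003 μM.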

[2] = target: PI3K delta (Homo sapiens (Human), UniProt O00329); assay: Enzymatic PI3K delta isoform inhibition (lipid kinase activity, Kinase-Glo luminescence); format: biochemical; settings: Enzymatic assay
In short: as §1

Sequence of PI3K alpha (P42336 other isoform, or with tags, fused parts or gaps): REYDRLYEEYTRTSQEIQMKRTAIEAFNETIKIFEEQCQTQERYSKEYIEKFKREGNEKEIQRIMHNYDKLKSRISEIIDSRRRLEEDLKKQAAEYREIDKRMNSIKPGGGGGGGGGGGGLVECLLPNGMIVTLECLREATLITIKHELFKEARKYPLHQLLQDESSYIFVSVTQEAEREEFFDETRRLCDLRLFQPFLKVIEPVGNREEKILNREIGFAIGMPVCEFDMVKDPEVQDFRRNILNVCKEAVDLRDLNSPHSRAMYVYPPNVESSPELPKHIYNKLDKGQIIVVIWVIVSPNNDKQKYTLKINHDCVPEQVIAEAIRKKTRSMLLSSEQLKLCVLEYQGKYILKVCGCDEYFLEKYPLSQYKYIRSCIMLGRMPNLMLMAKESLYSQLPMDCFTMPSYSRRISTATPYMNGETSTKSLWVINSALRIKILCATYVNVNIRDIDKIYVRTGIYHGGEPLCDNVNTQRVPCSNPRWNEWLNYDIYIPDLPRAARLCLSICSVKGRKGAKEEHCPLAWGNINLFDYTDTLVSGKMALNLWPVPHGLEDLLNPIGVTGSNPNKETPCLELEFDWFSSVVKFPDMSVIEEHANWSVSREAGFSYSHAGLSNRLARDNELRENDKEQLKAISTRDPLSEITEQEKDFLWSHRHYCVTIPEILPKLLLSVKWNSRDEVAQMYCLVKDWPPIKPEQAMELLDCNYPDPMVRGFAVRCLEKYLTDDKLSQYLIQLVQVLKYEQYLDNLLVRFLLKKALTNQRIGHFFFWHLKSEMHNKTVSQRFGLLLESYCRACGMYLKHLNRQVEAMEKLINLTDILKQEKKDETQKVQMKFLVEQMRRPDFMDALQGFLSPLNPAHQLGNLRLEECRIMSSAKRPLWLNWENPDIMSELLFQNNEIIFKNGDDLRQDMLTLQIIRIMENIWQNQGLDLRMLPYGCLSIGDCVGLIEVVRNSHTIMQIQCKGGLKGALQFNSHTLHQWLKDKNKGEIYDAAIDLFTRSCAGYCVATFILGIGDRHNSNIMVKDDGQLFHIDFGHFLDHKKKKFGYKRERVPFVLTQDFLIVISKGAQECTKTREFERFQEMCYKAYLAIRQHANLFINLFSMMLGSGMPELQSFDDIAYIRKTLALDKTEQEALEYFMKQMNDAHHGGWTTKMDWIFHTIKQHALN
Sequence of PI3K delta (O00329 other isoform, or with tags, fused parts or gaps linker GGGGGG): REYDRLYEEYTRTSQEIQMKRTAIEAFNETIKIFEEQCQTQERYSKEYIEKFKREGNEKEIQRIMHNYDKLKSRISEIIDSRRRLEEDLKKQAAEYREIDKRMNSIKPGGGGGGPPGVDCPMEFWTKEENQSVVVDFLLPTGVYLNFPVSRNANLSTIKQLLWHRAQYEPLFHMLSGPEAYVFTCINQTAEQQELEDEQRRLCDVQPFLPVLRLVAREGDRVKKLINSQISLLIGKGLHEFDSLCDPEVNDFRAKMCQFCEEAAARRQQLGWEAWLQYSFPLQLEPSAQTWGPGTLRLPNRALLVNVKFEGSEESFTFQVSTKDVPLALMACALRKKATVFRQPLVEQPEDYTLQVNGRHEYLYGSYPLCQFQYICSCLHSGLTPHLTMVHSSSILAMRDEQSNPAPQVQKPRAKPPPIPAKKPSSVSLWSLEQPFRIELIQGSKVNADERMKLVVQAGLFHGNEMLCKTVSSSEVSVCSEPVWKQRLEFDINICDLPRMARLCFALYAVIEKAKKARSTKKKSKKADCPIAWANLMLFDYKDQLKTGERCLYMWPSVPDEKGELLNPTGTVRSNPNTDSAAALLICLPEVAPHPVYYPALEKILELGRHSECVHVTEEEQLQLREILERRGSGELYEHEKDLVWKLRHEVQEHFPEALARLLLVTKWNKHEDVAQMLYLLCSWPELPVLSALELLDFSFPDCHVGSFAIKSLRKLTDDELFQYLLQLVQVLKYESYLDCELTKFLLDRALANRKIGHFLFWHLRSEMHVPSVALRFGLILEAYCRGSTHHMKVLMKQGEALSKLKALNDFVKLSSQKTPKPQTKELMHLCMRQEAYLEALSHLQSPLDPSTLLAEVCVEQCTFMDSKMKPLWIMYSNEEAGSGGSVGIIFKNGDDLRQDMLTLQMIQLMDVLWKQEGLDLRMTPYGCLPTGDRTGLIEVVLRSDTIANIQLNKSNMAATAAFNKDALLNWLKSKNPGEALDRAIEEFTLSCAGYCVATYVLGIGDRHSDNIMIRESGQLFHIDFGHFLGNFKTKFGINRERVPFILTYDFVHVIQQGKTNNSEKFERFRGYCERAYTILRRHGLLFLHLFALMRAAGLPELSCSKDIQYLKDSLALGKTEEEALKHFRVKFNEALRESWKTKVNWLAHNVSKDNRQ

SMILES	IC50 [1] [nM]	IC50 [2] [nM]
CCC(=O)N1CC[C@H](Oc2ccc3c(c2)N(c2cncc(S(C)(=O)=O)c2)CCO3)C1 [Example A37, 1-{(S)-3-[4-(5-Methanesulfonyl-pyridin-3-yl)-3,4-dihydro-2H-benzo[1,4]oxazin-6-yloxy]-pyrrolidin-1-yl}-propan-1-one]	370	78
COCC(=O)N1CC[C@H](Oc2ccc3c(c2)N(c2cnc(OC)c(F)c2)CCO3)C1 [Example B99, 1-{(S)-3-[4-(5-Fluoro-6-methoxy-pyridin-3-yl)-3,4-dihydro-2H-benzo[1,4]oxazin-6-yloxy]-pyrrolidin-1-yl}-2-methoxy-ethanone]	302	57
CCOc1ncc(N2CCOc3ccc(O[C@H]4CCN(C(=O)C5CCS(=O)(=O)CC5)C4)cc32)cc1C [Example B17, (1,1-Dioxo-hexahydro-1lambda*6*-thiopyran-4-yl)-{(S)-3-[4-(6-ethoxy-5-methyl-pyridin-3-yl)-3,4-dihydro-2H-benzo[1,4]oxazin-6-yloxy]-pyrrolidin-1-yl}-methanone]	2090	23
COc1ncc(N2CCOc3ccc(O[C@H]4CCN(C(=O)CC#N)C4)cc32)cc1F [Example B116, 3-{(S)-3-[4-(5-Fluoro-6-methoxy-pyridin-3-yl)-3,4-dihydro-2H-benzo[1,4]oxazin-6-yloxy]-pyrrolidin-1-yl}-3-oxo-propionitrile]	304	22
CCC(=O)N1CC[C@H](Oc2ccc3c(c2)N(c2ccc(OC)c(S(=O)(=O)N(C)C)c2)CCO3)C1 [Example A15, 2-Methoxy-N,N-dimethyl-5-[6-((S)-1-propionyl-pyrrolidin-3-yloxy)-2,3-dihydro-benzo[1,4]oxazin-4-yl]-benzenesulfonamide]	4890	184
Cc1cc(N2CCOc3ccc(O[C@H]4CCN(C(=O)C5CCOC5)C4)cc32)cnc1S(C)(=O)=O (stereo partly drawn) [Example B31, {(S)-3-[4-(6-Methanesulfonyl-5-methyl-pyridin-3-yl)-3,4-dihydro-2H-benzo[1,4]oxazin-6-yloxy]-pyrrolidin-1-yl}-(tetrahydro-furan-3-yl)-methanone]	977	3
Cc1cc(N2CCOc3ccc(O[C@H]4CCN(C(=O)C5CCS(=O)(=O)C5)C4)cc32)cnc1S(C)(=O)=O (stereo partly drawn) [Example B35, (1,1-Dioxo-tetrahydro-1lambda*6*-thiophen-3-yl)-{(S)-3-[4-(6-methanesulfonyl-5-methyl-pyridin-3-yl)-3,4-dihydro-2H-benzo[1,4]oxazin-6-yloxy]-pyrrolidin-1-yl}-methanone]	1390	27
CS(=O)(=O)c1ncc(N2CCOc3ccc(O[C@H]4CCN(C(=O)C5CCOCC5)C4)cc32)cc1Cl [Example B79, {(S)-3-[4-(5-Chloro-6-methanesulfonyl-pyridin-3-yl)-3,4-dihydro-2H-benzo[1,4]oxazin-6-yloxy]-pyrrolidin-1-yl}-(tetrahydro-pyran-4-yl)-methanone]	661	3
Cc1cc(N2CCOc3ccc(O[C@H]4CCN(S(=O)(=O)C5CCOCC5)C4)cc32)cnc1S(C)(=O)=O [Example B81, 4-(6-Methanesulfonyl-5-methyl-pyridin-3-yl)-6-[(S)-1-(tetrahydro-pyran-4-sulfonyl)-pyrrolidin-3-yloxy]-3,4-dihydro-2H-benzo[1,4]oxazine]	482	81
Cc1cc(N2CCOc3ccc(O[C@H]4CCN(C(=O)c5ccncc5)C4)cc32)cnc1S(C)(=O)=O [Example B22, {(S)-3-[4-(6-Methanesulfonyl-5-methyl-pyridin-3-yl)-3,4-dihydro-2H-benzo[1,4]oxazin-6-yloxy]-pyrrolidin-1-yl}-pyridin-4-yl-methanone]	589	5
CCC(=O)N1CC[C@H](Oc2ccc3c(c2)N(c2cncc(C(F)(F)F)c2)CCO3)C1 [Example A38, 1-{(S)-3-[4-(5-Trifluoromethyl-pyridin-3-yl)-3,4-dihydro-2H-benzo[1,4]oxazin-6-yloxy]-pyrrolidin-1-yl}-propan-1-one]	343	64
COc1ncc(N2CCOc3ccc(O[C@H]4CCN(C(=O)c5ccn(C)n5)C4)cc32)cc1C [Example B21, {(S)-3-[4-(6-Methoxy-5-methyl-pyridin-3-yl)-3,4-dihydro-2H-benzo[1,4]oxazin-6-yloxy]-pyrrolidin-1-yl}-(1-methyl-1H-pyrazol-3-yl)-methanone]	666	13
COc1ncc(N2CCOc3ccc(O[C@H]4CCN(C(=O)C5CCOC5)C4)cc32)cc1C (stereo partly drawn) [Example B94, {(S)-3-[4-(6-Methoxy-5-methyl-pyridin-3-yl)-3,4-dihydro-2H-benzo[1,4]oxazin-6-yloxy]-pyrrolidin-1-yl}-(tetrahydro-furan-3-yl)-methanone]	416	5
COc1ncc(N2CCOc3ccc(O[C@H]4CCN(C(=O)C5COCCO5)C4)cc32)cc1C#N (stereo partly drawn) [Example C25, 5-{6-[(S)-1-([1,4]Dioxane-2-carbonyl)-pyrrolidin-3-yloxy]-2,3-dihydro-benzo[1,4]oxazin-4-yl}-2-methoxy-nicotinonitrile]	474	12.5
Cc1cnccc1C(=O)N1CC[C@H](Oc2ccc3c(c2)N(c2cnc(S(C)(=O)=O)c(C)c2)CCO3)C1 [Example B67, {(S)-3-[4-(6-Methanesulfonyl-5-methyl-pyridin-3-yl)-3,4-dihydro-2H-benzo[1,4]oxazin-6-yloxy]-pyrrolidin-1-yl}-(3-methyl-pyridin-4-yl)-methanone]	804	25
COc1cc(N2CCOc3ccc(O[C@H]4CCN(C(=O)c5ccc(=O)[nH]c5)C4)cc32)cnc1Cl [Example B63, 5-{(S)-3-[4-(6-Chloro-5-methoxy-pyridin-3-yl)-3,4-dihydro-2H-benzo[1,4]oxazin-6-yloxy]-pyrrolidine-1-carbonyl}-1H-pyridin-2-one]	1520	68
COc1ncc(N2CCOc3ccc(O[C@H]4CCN(C(=O)c5cncn5C)C4)cc32)cc1C [Example B88, {(S)-3-[4-(6-Methoxy-5-methyl-pyridin-3-yl)-3,4-dihydro-2H-benzo[1,4]oxazin-6-yloxy]-pyrrolidin-1-yl}-(3-methyl-3H-imidazol-4-yl)-methanone]	234	8

Next, values leading:

IC50 [1] [nM]	IC50 [2] [nM]	SMILES
103	5	COc1ncc(N2CCOc3ccc(O[C@H]4CCN(C(=O)C5CCS(=O)(=O)C5)C4)cc32)cc1Cl (single isomer, unassigned) [Example H14]
444	25	COc1ncc(N2CCOc3cnc(O[C@H]4CCN(C(=O)c5cn(C)cn5)C4)cc32)cc1C#N [Example F5, 2-Methoxy-5-{7-[(S)-1-(1-methyl-1H-imidazole-4-carbonyl)-pyrrolidin-3-yloxy]-2,3-dihydro-pyrido[3,4-b][1,4]oxazin-1-yl}-nicotinonitrile]
304	6	Cc1cc(N2CCOc3ccc(O[C@H]4CCN(c5ccccn5)C4)cc32)cnc1S(C)(=O)=O [M, 4-(6-Methanesulfonyl-5-methyl-pyridin-3-yl)-6-((S)-1-pyridin-2-yl-pyrrolidin-3-yloxy)-3,4-dihydro-2H-benzo[1,4]oxazine]
117	8	COc1ncc(N2CCOc3ccc(O[C@H]4CCN(C(=O)c5ocnc5C)C4)cc32)cc1C#N [Example D33, 2-Methoxy-5-{6-[(S)-1-(4-methyl-oxazole-5-carbonyl)-pyrrolidin-3-yloxy]-2,3-dihydro-benzo[1,4]oxazin-4-yl}-nicotinonitrile]
> 9100	2690	CCC(=O)N1C[C@H](Oc2ccc3c(c2)N(c2cnc(OC)c(C#N)c2)CCO3)CO1 [Example D25, 2-Methoxy-5-[6-((S)-2-propionyl-isoxazolidin-4-yloxy)-2,3-dihydro-benzo[1,4]oxazin-4-yl]-nicotinonitrile]
133	22	COc1ncc(N2CCOc3cnc(O[C@H]4CCN(C(=O)c5cn(C)cn5)C4)cc32)cc1C(F)(F)F [Example E7, {(S)-3-[1-(6-Methoxy-5-trifluoromethyl-pyridin-3-yl)-2,3-dihydro-1H-pyrido[3,4-b][1,4]oxazin-7-yloxy]-pyrrolidin-1-yl}-(1-methyl-1H-imidazol-4-yl)-methanone]
836	6	Cc1cc(N2CCOc3ccc(O[C@H]4CCN(C(=O)C5CCOCC5)C4)c(F)c32)cnc1S(C)(=O)=O [Example I3]
2980	56	Cc1cc(N2CCOc3ccc(O[C@H]4CCN(C(=O)C5CCOCC5)C4)c(C)c32)cnc1S(C)(=O)=O [W, {(S)-3-[4-(6-Methanesulfonyl-5-methyl-pyridin-3-yl)-5-methyl-3,4-dihydro-2H-benzo[1,4]oxazin-6-yloxy]-pyrrolidin-1-yl}-(tetrahydro-pyran-4-yl)-methanone]
5150	127	COc1ccc(N2CCOc3ccc(O[C@H]4CCN(C(=O)C5CCOCC5)C4)cc32)cn1 [Example D30, {(S)-3-[4-(6-Methoxy-pyridin-3-yl)-3,4-dihydro-2H-benzo[1,4]oxazin-6-yloxy]-pyrrolidin-1-yl}-(tetrahydro-pyran-4-yl)-methanone]
2530	214	CCC(=O)N1C[C@@H](Oc2ccc3c(c2)N(c2cnc(OC)c(C#N)c2)CCO3)CO1 [Example D23, 2-Methoxy-5-[6-((R)-2-propionyl-isoxazolidin-4-yloxy)-2,3-dihydro-benzo[1,4]oxazin-4-yl]-nicotinonitrile]
503	7	COc1ncc(N2CCOc3ccc(O[C@H]4CCN(C(=O)C5CCS(=O)(=O)CC5)C4)cc32)cc1C#N [Example D16, 5-{6-[(S)-1-(1,1-Dioxo-hexahydro-1lambda*6*-thiopyran-4-carbonyl)-pyrrolidin-3-yloxy]-2,3-dihydro-benzo[1,4]oxazin-4-yl}-2-methoxy-nicotinonitrile]
